Laboratory results from patent publication US20160030407A1, “Method of Treating Inflammatory Lung Disease” (priority 2010, published 2016).
Several values for one entry are separate records, joined by “and”; a condition that tells them apart may be missing. Identical values can stand only once.

What was measured:
[1] = Brain extract concentrations after single i.v. bolus; assay type: in vivo, Sprague-Dawley rats; details: for Concentration in rat brain extract: individual rats
Procedure: Six rats (3 males and 3 females) were dosed per dose group. […] Plasma and brain homogenates were stored at −80° C. until analysis.
An additional 48 rats (24 males and 24 females) received a single intravenous dose via the tail vein at the same doses as mentioned above. At 30 and 360 minutes post administration, 6 rats (3 males and 3 females) per dose group, per time point were euthanized, bled via cardiac puncture, and perfused, and brains were collected. The brains were homogenized. Blood was spun, and plasma was collected. Plasma and brain homogenate were stored at −80° C.
The animals were weighed prior to dosing and received a single i.v. dose of either test compound at a volume of 5 mL/kg. Blood was collected via the venus plexus (retro-orbital) into tubes containing (K2) EDTA. No more than 0.5 mL was collected per time point. […] The brain was removed, weighed, homogenized in sterile 0.9% saline at a volume equal to its weight, and stored at −80° C.
The amount of the test agent in the supernatant was determined by liquid chromatography tandem mass spectrometry (LC/MS/MS).
(§1) Analysis. Samples were analyzed by LC/MS/MS using an Agilent 6410 mass spectrometer coupled with an Agilent 1200 high pressure liquid chromatography (HPLC) and a CTC PAL chilled autosampler, all controlled by MassHunter software (Agilent). After separation on a hydrophilic interaction liquid chromatography (HILIC) HPLC column (Sepax) using an acetonitrile-ammonium acetate/acetic acid gradient system, peaks were analyzed by mass spectrometry (MS) using ESI ionization in multiple reaction monitoring (MRM) mode. MassHunter software was used to calculate the concentration of the test compounds in samples from the peak area using the appropriate calibration curves.

[2] = Plasma pharmacokinetics after oral multi-dose anatabine polacrilex; assay type: in vivo, Sprague-Dawley rats; details: for Anatabine Concentration in rat plasma: dose 0.2 mg/kg, male, individual animals
Procedure: This study consisted of two groups of 8 animals each, 4 males and 4 females.
The vehicle was sterile phosphate buffered saline (PBS) (Amresco). […] Two formulations were prepared; one for each of the two treatment groups. The test compound was formulated for each treatment group just prior to the first dose administration and constantly stirred until dosing was completed (Table 37). Four aliquots of each dose level formulation were collected and stored at −80° C.
The animals were weighed prior to dosing and received three doses p.o. of test compound at a volume of 5 mL/kg. Blood was collected via the venus plexus (retro-orbital) into tubes containing (K2) EDTA. No more than 0.5 mL was collected per time point.
Sample preparation. Plasma samples were treated with three volumes of methanol containing internal standard at 1 μM (R,S)-Antabine-2,4,5,6-d4), incubated 10 min at 4° C., and centrifuged. The amount of the test agent in the supernatant was determined by LC/MS/MS.
as §1, with “Hydrophilic” for “hydrophilic”
Descriptive statistics were calculated for all pharmacokinetic parameters. Elimination half-lives (t1/2) were calculated by linear regression of logarithmically transformed plasma concentration data for each period between doses and following the final dose.
Total areas under the plasma concentration curves (AUC) and under the first moment curves (AUMC) were calculated using linear trapezoidal summation across all concentration time points as well as for intervals between each dose administration and following the final dose. […] Mean absorption times (MAT) were calculated according to the following relation: […]

[3] = Anatabine 0.6 mg/kg, female rats, mean
[4] = Anatabine 0.6 mg/kg, male and female combined, mean
[5] = Anatabine 0.6 mg/kg, male rats, mean
[6] = Anatabine 6.0 mg/kg, female rats, mean
[7] = Anatabine 6.0 mg/kg, male and female combined, mean
[8] = Anatabine 6.0 mg/kg, male rats, mean
[9] = all data combined (overall), mean
[10] = both treatment groups combined, female rats, mean
[11] = females, 6.0 mg/kg BW group (3 x 2.0 mg/kg p.o.)

Compound: C1=CCC(c2cccnc2)NC1 (racemic) [Anatabine, 1,2,3,6-tetrahydro-[2,3′]bipyridinyl]
- Concentration in rat brain extract ([1]; Anatabine 0.1 mg/kg dose group, time point 0.5 hr): <LLQ
- Concentration in rat brain extract ([1]; Anatabine 0.1 mg/kg dose group, time point 6 hr): <LLQ
- Concentration in rat brain extract ([1]; Anatabine 0.1 mg/kg dose group, time point 24 hr): <LLQ
- Concentration in rat brain extract ([1]; Anatabine 0.75 mg/kg dose group, time point 24 hr): <LLQ
- Concentration in rat brain extract ([1]; Anatabine 1.0 mg/kg dose group, time point 6 hr): <LLQ
- Concentration in rat brain extract ([1]; Anatabine 1.0 mg/kg dose group, time point 24 hr): <LLQ
- Avg. Conc. (Combined Male and Female) ([1]; Rat Brain, Anatabine 0.75 mg/kg, combined, 24 hr): <LLQ
- Avg. Conc. (Male or Female) ([1]; Rat Brain, Anatabine 0.75 mg/kg, female, 24 hr): <LLQ
- Avg. Conc. (Male or Female) ([1]; Rat Brain, Anatabine 0.75 mg/kg, male, 24 hr): <LLQ
- Avg. Conc. (Male or Female) ([1]; Rat Brain, Anatabine 1.0 mg/kg, female, 24 hr): <LLQ
- appearance in brain tissue ([1]; rat, following i.v. administration): rapidly appear in brain tissue
- Mean concentration in rat brain extracts ([1]; single i.v. 0.75 mg/kg, female, 24 hr): <LLQ
- Mean concentration in rat brain extracts ([1]; single i.v. 0.75 mg/kg, male, 24 hr): <LLQ
- Mean concentration in rat brain extracts ([1]; single i.v. 1.0 mg/kg, female, 24 hr): <LLQ
- AUC0→∞ [2, 3]: 290 ng·h/mL
- MAT0→4 (mean absorption time) [2, 3]: 0.53 h
- t1/2, 0→4 (elimination half-life after first dose) [2, 3]: 2.06 h
- t1/2, terminal [2, 3]: 1.80 h
- MAT0→4 (mean absorption time) [2, 4]: 0.61 h
- MTT0→4 (mean transit time) [2, 4]: 3.06 h
- AUC0→∞ [2, 5]: 280 ng·h/mL
- MAT0→4 (mean absorption time) [2, 5]: 0.71 h
- t1/2, terminal [2, 5]: 1.78 h
- Cp, max (1) ([2]; Anatabine 6.0 mg/kg, female rats, after dose 1, mean): 260 ng/mL
- MAT0→4 (mean absorption time) [2, 6]: 0.30 h
- t1/2, 0→4 (elimination half-life after first dose) [2, 6]: 1.82 h
- MAT0→4 (mean absorption time) [2, 7]: 0.52 h
- MTT0→4 (mean transit time) [2, 7]: 2.97 h
- MAT0→4 (mean absorption time) [2, 8]: 0.73 h
- t1/2, 0→4 (elimination half-life after first dose) [2, 8]: 1.76 h
- concentration at 30 min ([2]; Sprague-Dawley, rat, plasma, oral, 2 mg/kg BW, dose group 2, female, 30 min, mean): 160 ng/mL
- concentration at 60 min ([2]; Sprague-Dawley, rat, plasma, oral, 2 mg/kg BW, dose group 2, female, 60 min, mean): 129 ng/mL
- concentration at 235 min ([2]; Sprague-Dawley, rat, plasma, oral, 2 mg/kg BW, dose group 2, female, 235 min, mean): 44 ng/mL
- concentration at 270 min ([2]; Sprague-Dawley, rat, plasma, oral, 2 mg/kg BW, dose group 2, female, 270 min, mean): 316 ng/mL
- concentration at 300 min ([2]; Sprague-Dawley, rat, plasma, oral, 2 mg/kg BW, dose group 2, female, 300 min, mean): 234 ng/mL
- concentration at 475 min ([2]; Sprague-Dawley, rat, plasma, oral, 2 mg/kg BW, dose group 2, female, 475 min, mean): 192 ng/mL
- concentration at 540 min ([2]; Sprague-Dawley, rat, plasma, oral, 2 mg/kg BW, dose group 2, female, 540 min, mean): 386 ng/mL
- concentration at 600 min ([2]; Sprague-Dawley, rat, plasma, oral, 2 mg/kg BW, dose group 2, female, 600 min, mean): 325 ng/mL
- concentration at 720 min ([2]; Sprague-Dawley, rat, plasma, oral, 2 mg/kg BW, dose group 2, female, 720 min, mean): 208 ng/mL
- MAT0→4 (mean absorption time) [2, 9]: 0.56 h
- MTT0→4 (mean transit time) [2, 9]: 3.01 h
- t1/2, 0→4 (elimination half-life after first dose) [2, 9]: 1.93 h
- MAT0→4 (mean absorption time) [2, 10]: 0.42 h
- MTT0→4 (mean transit time) [2, 10]: 2.87 h
- t1/2, 0→4 (elimination half-life after first dose) [2, 10]: 1.94 h
- MAT0→4 (mean absorption time) ([2]; both treatment groups combined, male rats, mean): 0.72 h
- Anatabine Concentration in rat plasma ([2]; 30 min): <LOQ
- Anatabine Concentration in rat plasma ([2]; 235 min): <LOQ
- Anatabine Concentration in rat plasma ([2]; 475 min): <LOQ
- Anatabine Concentration in rat plasma ([2]; 600 min): <LOQ
- Anatabine Concentration in rat plasma ([2]; 720 min): <LOQ
- Avg. Conc. of Anatabine in plasma ([2]; dose group 0.2, combined male and female, 30 min, mean): 36 ng/mL
- Avg. Conc. of Anatabine in plasma ([2]; dose group 0.2, combined male and female, 60 min, mean): 31 ng/mL
- Avg. Conc. of Anatabine in plasma ([2]; dose group 0.2, combined male and female, 235 min, mean): 10 ng/mL
- Avg. Conc. of Anatabine in plasma ([2]; dose group 0.2, combined male and female, 270 min, mean): 26 ng/mL
- Avg. Conc. of Anatabine in plasma ([2]; dose group 0.2, combined male and female, 300 min, mean): 27 ng/mL
- Avg. Conc. of Anatabine in plasma ([2]; dose group 0.2, combined male and female, 475 min, mean): 11 ng/mL
- Avg. Conc. of Anatabine in plasma ([2]; dose group 0.2, combined male and female, 540 min, mean): 30 ng/mL
- Avg. Conc. of Anatabine in plasma ([2]; dose group 0.2, combined male and female, 600 min, mean): 26 ng/mL
- Avg. Conc. of Anatabine in plasma ([2]; dose group 0.2, combined male and female, 720 min, mean): 13 ng/mL
- Avg. Conc. of Anatabine in plasma ([2]; dose group 0.2, female, 30 min, mean): 37 ng/mL
- Avg. Conc. of Anatabine in plasma ([2]; dose group 0.2, female, 60 min, mean): 35 ng/mL
- Avg. Conc. of Anatabine in plasma ([2]; dose group 0.2, female, 235 min, mean): 12 ng/mL
- Avg. Conc. of Anatabine in plasma ([2]; dose group 0.2, female, 270 min, mean): 26 ng/mL
- Avg. Conc. of Anatabine in plasma ([2]; dose group 0.2, female, 300 min, mean): 34 ng/mL
- Avg. Conc. of Anatabine in plasma ([2]; dose group 0.2, female, 475 min, mean): 8 ng/mL
- Avg. Conc. of Anatabine in plasma ([2]; dose group 0.2, female, 540 min, mean): 34 ng/mL
- Avg. Conc. of Anatabine in plasma ([2]; dose group 0.2, female, 600 min, mean): 28 ng/mL
- Avg. Conc. of Anatabine in plasma ([2]; dose group 0.2, female, 720 min, mean): 12 ng/mL
- Avg. Conc. of Anatabine in plasma ([2]; dose group 0.2, male, 30 min, mean): 33 ng/mL
- Avg. Conc. of Anatabine in plasma ([2]; dose group 0.2, male, 60 min, mean): 30 ng/mL
- Avg. Conc. of Anatabine in plasma ([2]; dose group 0.2, male, 235 min, mean): 11 ng/mL
- Avg. Conc. of Anatabine in plasma ([2]; dose group 0.2, male, 270 min, mean): 26 ng/mL
- Avg. Conc. of Anatabine in plasma ([2]; dose group 0.2, male, 300 min, mean): 26 ng/mL
- Avg. Conc. of Anatabine in plasma ([2]; dose group 0.2, male, 475 min, mean): 18 ng/mL
- Avg. Conc. of Anatabine in plasma ([2]; dose group 0.2, male, 540 min, mean): 38 ng/mL
- Avg. Conc. of Anatabine in plasma ([2]; dose group 0.2, male, 600 min, mean): 29 ng/mL
- Avg. Conc. of Anatabine in plasma ([2]; dose group 0.2, male, 720 min, mean): 12 ng/mL
- Avg. Conc. of Anatabine in plasma ([2]; dose group 2, combined male and female, 30 min, mean): 201 ng/mL
- Avg. Conc. of Anatabine in plasma ([2]; dose group 2, combined male and female, 60 min, mean): 139 ng/mL
- Avg. Conc. of Anatabine in plasma ([2]; dose group 2, combined male and female, 235 min, mean): 63 ng/mL
- Avg. Conc. of Anatabine in plasma ([2]; dose group 2, combined male and female, 300 min, mean): 222 ng/mL
- Avg. Conc. of Anatabine in plasma ([2]; dose group 2, combined male and female, 600 min, mean): 237 ng/mL
- Avg. Conc. of Anatabine in plasma ([2]; dose group 2, combined male and female, 720 min, mean): 194 ng/mL
- Avg. Conc. of Anatabine in plasma ([2]; dose group 2, male, 30 min, mean): 243 ng/mL
- Avg. Conc. of Anatabine in plasma ([2]; dose group 2, male, 60 min, mean): 165 ng/mL
- Avg. Conc. of Anatabine in plasma ([2]; dose group 2, male, 235 min, mean): 72 ng/mL
- Avg. Conc. of Anatabine in plasma ([2]; dose group 2, male, 270 min, mean): 303 ng/mL
- Avg. Conc. of Anatabine in plasma ([2]; dose group 2, male, 300 min, mean): 183 ng/mL
- Avg. Conc. of Anatabine in plasma ([2]; dose group 2, male, 475 min, mean): 97 ng/mL
- Avg. Conc. of Anatabine in plasma ([2]; dose group 2, male, 540 min, mean): 226 ng/mL
- Avg. Conc. of Anatabine in plasma ([2]; dose group 2, male, 600 min, mean): 151 ng/mL
- Avg. Conc. of Anatabine in plasma ([2]; dose group 2, male, 720 min, mean): 203 ng/mL
- Cp, max, final value [2, 11]: 374.8 ± 122.9 ng/mL
- Cp, max, initial value [2, 11]: 259.8 ± 35.4 ng/mL
- Cp, min(2) ([2]; females, 6.0 mg/kg BW group, 6 mg/kg): 180 ± 31 ng/mL and 180.0 ± 30.7 ng/mL
